ChEMBL document CHEMBL1641476, “Tetrahydroquinoline derivatives as opioid receptor antagonists” (Bioorg Med Chem Lett, 2011)
pKi: −log10 of the molar value.

Tests used:
Mu-type opioid receptor = Mu-type opioid receptor (Homo sapiens, UniProt P35372); assay: Antagonist activity at human mu opioid receptor expressed in CHO cells assessed as [35S]GTPgammaS binding by SPA; type: functional, cell-based
[1] = target: Delta-type opioid receptor (Homo sapiens, UniProt P41143); assay: Antagonist activity at human delta opioid receptor expressed in CHO cells assessed as [35S]GTPgammaS binding by SPA; type: functional, cell-based
[2] = target: Kappa-type opioid receptor (Homo sapiens, UniProt P41145); assay: Antagonist activity at human kappa opioid receptor expressed in CHO cells assessed as [35S]GTPgammaS binding by SPA; type: functional, cell-based
[3] = Volume of distribution at steady state in iv dosed Long-Evans rat; type: ADME, organism-based; settings: in vivo, read-out: Vdss
[4] = Oral bioavailability in Long-Evans rat; type: ADME, organism-based; settings: in vivo
[5] = Half life in iv dosed Long-Evans rat; type: ADME, organism-based; settings: in vivo
Rattus norvegicus = assay: Ratio of drug level in po dosed Long-Evans rat; type: ADME, organism-based; settings: in vivo
[6] = Clearance in iv dosed Long-Evans rat; type: ADME, organism-based; settings: in vivo

Sequence of Mu-type opioid receptor (P35372 whole entry): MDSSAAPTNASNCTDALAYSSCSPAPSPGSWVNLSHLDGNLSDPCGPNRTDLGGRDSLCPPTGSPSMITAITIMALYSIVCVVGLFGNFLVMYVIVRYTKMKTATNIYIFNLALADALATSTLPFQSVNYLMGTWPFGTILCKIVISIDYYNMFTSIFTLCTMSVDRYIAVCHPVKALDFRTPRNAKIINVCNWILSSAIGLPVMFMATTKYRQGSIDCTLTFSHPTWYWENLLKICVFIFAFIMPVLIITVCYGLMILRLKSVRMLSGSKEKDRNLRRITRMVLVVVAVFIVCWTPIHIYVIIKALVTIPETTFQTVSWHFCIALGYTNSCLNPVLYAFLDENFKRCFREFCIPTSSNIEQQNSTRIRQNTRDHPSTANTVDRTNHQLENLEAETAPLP
Sequence of Kappa-type opioid receptor (P41145 whole entry): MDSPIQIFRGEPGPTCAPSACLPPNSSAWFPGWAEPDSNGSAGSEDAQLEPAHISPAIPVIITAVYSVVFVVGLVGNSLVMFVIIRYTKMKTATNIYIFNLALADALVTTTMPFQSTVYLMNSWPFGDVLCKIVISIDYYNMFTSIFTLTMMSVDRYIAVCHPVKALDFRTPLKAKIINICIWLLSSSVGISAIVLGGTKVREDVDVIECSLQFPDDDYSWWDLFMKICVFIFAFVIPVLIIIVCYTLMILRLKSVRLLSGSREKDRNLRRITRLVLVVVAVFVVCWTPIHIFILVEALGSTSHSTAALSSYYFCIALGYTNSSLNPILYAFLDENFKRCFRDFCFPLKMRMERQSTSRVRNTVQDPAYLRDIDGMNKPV
Sequence of Delta-type opioid receptor (P41143 whole entry): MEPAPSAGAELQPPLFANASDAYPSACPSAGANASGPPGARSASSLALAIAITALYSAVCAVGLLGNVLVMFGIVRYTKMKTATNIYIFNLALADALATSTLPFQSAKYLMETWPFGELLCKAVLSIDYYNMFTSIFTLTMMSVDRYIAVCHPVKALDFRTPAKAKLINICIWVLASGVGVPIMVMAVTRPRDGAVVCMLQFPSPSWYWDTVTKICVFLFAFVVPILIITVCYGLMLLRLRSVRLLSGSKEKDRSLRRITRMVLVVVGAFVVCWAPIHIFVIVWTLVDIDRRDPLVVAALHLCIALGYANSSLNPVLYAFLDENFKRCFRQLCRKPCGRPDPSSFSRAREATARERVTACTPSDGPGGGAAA

pKi (Mu-type opioid receptor) | pKi [1] | pKi [2] | Vd [3] | bioavailability [4] | half-life [5] | Ratio (Rattus norvegicus) | clearance [6] | SMILES
7.50 | 6.60 | 6.10 |  |  |  |  |  | NC(=O)c1ccc2c(c1)CCCN2c1ccc(CNCCc2cccc(F)c2)cc1
6.90 | 6.50 | 6.60 |  |  |  |  |  | NC(=O)c1ccc2c(c1)CCCN2c1ccc(CNCCC2CCOCC2)cc1
7.30 | 6.50 | 6.60 |  |  |  |  |  | CC(C)(C)CCNCc1ccc(N2CCCc3cc(C(N)=O)ccc32)cc1
7.30 | 6.70 | 5.90 |  |  |  |  |  | NC(=O)c1ccc2c(c1)CCCN2c1cccc(CNCCC2=CCCCC2)c1
7.60 | 6.50 | 6.20 |  |  |  |  |  | NC(=O)c1ccc2c(c1)CCCN2c1ccc(CNCCc2cccs2)cc1
7.60 | 6.80 | 6.50 | 1.5 L/kg | 33% | 5.34 h | 0.1 | 26.5 mL/min/kg | NC(=O)c1ccc2c(c1)CCCN2c1ccc(CNCCC2=CCCCC2)cc1
6.20 | < 5.40 | 5.90 |  |  |  |  |  | CC(C)CNCc1ccc(N2CCCc3cc(C(N)=O)ccc32)cc1
7.10 | 6.50 | 6.30 |  |  |  |  |  | CC(C)CCNCc1ccc(N2CCCc3cc(C(N)=O)ccc32)cc1
7.00 | 6.40 | 6.20 |  |  |  |  |  | NC(=O)c1ccc2c(c1)CCCN2c1ccc(CNCc2cccc(F)c2)cc1
7.90 | 7.10 | 6.90 |  |  |  |  |  | NC(=O)c1ccc2c(c1)CCCN2c1ccc(CNC2Cc3ccc(F)cc3C2)cc1 (stereo not drawn)

More lines, now with the values behind:

SMILES | pKi (Mu-type opioid receptor) | pKi [1] | pKi [2] | Vd [3] | bioavailability [4] | half-life [5] | Ratio (Rattus norvegicus) | clearance [6]
NC(=O)c1ccc2c(c1)CCCN2c1ccc(CNC2Cc3ccccc3C2)cc1 | 8.30 | 7.40 | 7.60 |  |  |  |  | 
Cc1cc(CNCCC2=CCCCC2)ccc1N1CCCc2cc(C(N)=O)ccc21 | 7.90 | 7.00 | 6.70 |  |  |  |  | 
NC(=O)c1ccc2c(c1)CCCN2c1ccc(CNC2Cc3ccccc3C2)c(Cl)c1 | 7.80 | 7.00 | 6.70 |  |  |  |  | 
CC1(C)CCC(NCc2ccc(N3CCCc4cc(C(N)=O)ccc43)cc2)CC1 | 8.00 | 7.30 | 7.20 |  |  |  |  | 
NC(=O)c1ccc2c(c1)CCCN2c1cc(F)c(CNC2Cc3ccccc3C2)c(F)c1 | 7.60 | 6.50 | 6.20 |  |  |  |  | 
O=C(O)c1ccc2c(c1)CCCN2c1ccc(CNCCC2=CCCCC2)cc1 | < 5.50 | < 5.40 | < 5.40 |  |  |  |  | 
CCCCCNCc1ccc(N2CCCc3cc(C(N)=O)ccc32)cc1 | 7.30 | 6.60 | 6.00 |  |  |  |  | 
NC(=O)c1ccc2c(c1)CCCN2c1ccc(CNC2CCN(C3CCOCC3)CC2)cc1 | < 5.40 | < 5.40 | < 5.40 |  |  |  |  | 
Cc1cc(N2CCCc3cc(C(N)=O)ccc32)ccc1CNC1Cc2ccccc2C1 | 8.10 | 6.80 | 6.80 |  |  |  |  | 
Cc1cc(N2CCCc3cc(C(N)=O)ccc32)ccc1CNCCC1=CCCCC1 | 7.00 | 6.30 | 6.20 |  |  |  |  | 
Cc1cc(CNC2Cc3ccccc3C2)ccc1N1CCCc2cc(C(N)=O)ccc21 | 8.80 | 7.90 | 7.70 |  |  |  |  | 
C1=C(CCNCc2ccc(N3CCCc4ccccc43)cc2)CCCC1 | 6.40 | < 5.40 | < 5.40 |  |  |  |  | 
NC(=O)c1ccc2c(c1)CCCN2c1ccc(CNC2Cc3ccccc3C2)c(F)c1 | 8.10 | 7.00 | 6.70 |  |  |  |  | 
NC(=O)c1ccc2c(c1)CCCN2c1cccc(C(=O)NCCC2=CCCCC2)c1 | 5.70 | 5.80 | < 5.40 |  |  |  |  | 
NC(=O)c1ccc2c(c1)CCCN2c1ccc(CNCC2CCCCC2)cc1 | 7.40 | 6.40 | 6.50 |  |  |  |  | 
NC(=O)c1ccc2c(c1)CCCN2c1ccc(CNC2Cc3ccccc3C2)c(C(F)(F)F)c1 | 7.30 | 7.20 | 6.20 |  |  |  |  | 
